Where two headings read alike, the source gives them in different places.
Assays:
human cathepsin B [1] = target: T1, human cathepsin B (Homo sapiens, UniProt P07858); assay: Inhibition of cathepsin B, fluorogenic substrate Z-Phe-Arg-AMC; conditions: for Ki: cathepsin B
human cathepsin L = target: T2, human cathepsin L (Homo sapiens, UniProt P07711); assay: Inhibition of cathepsin L, fluorogenic substrate Z-Leu-Arg-AMC; assay type: biochemical; conditions: for Mechanism of inhibition of cathepsin L / Ki: pH 5.5
T2 construct: made in house

cathepsin K = target: T3, cathepsin K (Homo sapiens, UniProt P43235); assay: Inhibition of cathepsin K (results not shown); assay type: biochemical; conditions: confirmed in the authors' laboratory
T3 sequence (P43235 115-329): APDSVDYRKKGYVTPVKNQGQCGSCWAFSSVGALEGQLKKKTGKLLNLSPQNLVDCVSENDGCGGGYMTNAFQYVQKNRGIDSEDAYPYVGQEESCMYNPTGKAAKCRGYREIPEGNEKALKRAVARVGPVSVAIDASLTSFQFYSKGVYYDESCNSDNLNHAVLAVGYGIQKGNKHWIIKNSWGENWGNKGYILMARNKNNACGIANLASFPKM

[2] = Solubility under the experimental conditions used; assay type: physicochemical; conditions: assay buffer of the cathepsin L inhibition screening, aqueous buffer; under the experimental conditions used (pH 5.5 assay buffer); read-out: Limited solubility
Description: The kinetic characterization of CA, CAPE, and CGA was initially performed under the same conditions as the inhibition screening (pH 5.5). All compounds acted as fast, linear inhibitors of cathepsin L, as observed for DPPI [17]. Kinetic mechanisms and inhibition parameters were determined by a combination of titration curves (plots of the residual enzyme activity (vX/v0) against the inhibitor concentration) and replots of the experimental data as specific velocity plots. The remaining titration curves were collected in Supplementary Figure S1. […] However, a more precise characterization of its effect was made difficult by its limited solubility of only up to about 200 μM under the experimental conditions used.

human cathepsin B [3] = target: T1, human cathepsin B; assay: Inhibition of peptidyl-dipeptidase activity of cathepsin B, substrate Abz-Gly-Ile-Val-Arg-Ala-Lys(Dnp)-OH; assay type: biochemical; set-up: made in house; conditions: pH 5.5, [S] = Km, read-out: IC50, peptidyl-peptidase activity of cathepsin B
Description: In addition, the peptidyl-dipeptidase activity of cathepsin B was measured with the internally quenched fluorigenic substrate Abz-Gly-Ile-Val-Arg-Ala-Lys(Dnp)-OH. Cleavage of this substrate was assessed at λex = 370 nm and λem = 430 nm. […] Nevertheless, appropriate correction of the inner filter effect was performed for all compounds according to the following reference.
For linear (complete) inhibitors, v∞ = 0.

[4] = test system: dipeptidyl-peptidase I (DPPI); set-up: method as in PMID 31574257; conditions: previously characterized; cited from earlier work
[5] = KCa, pH 5.5, catalytic (uncompetitive) inhibition constant
[6] = KCa, pH 7.4, catalytic (uncompetitive) inhibition constant
[7] = KSp, pH 7.4, specific (competitive) inhibition constant
[8] = catalytic (uncompetitive) inhibition constant, read-out: KCa, cathepsin L
[9] = specific (competitive) inhibition constant, read-out: KSp, cathepsin L
[10] = KSp, pH 5.5, specific (competitive) inhibition constant

T2 sequence (P07711 114-333): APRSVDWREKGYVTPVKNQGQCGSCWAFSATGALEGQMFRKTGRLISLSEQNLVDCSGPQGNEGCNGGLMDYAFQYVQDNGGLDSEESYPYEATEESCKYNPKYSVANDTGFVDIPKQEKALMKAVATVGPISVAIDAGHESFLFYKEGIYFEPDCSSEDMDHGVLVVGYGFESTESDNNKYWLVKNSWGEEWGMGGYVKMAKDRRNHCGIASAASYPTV

| Structure (SMILES) | IC50 (human cathepsin B [1]) [µM] | IC50 (human cathepsin L) [µM] | Inhibition of cathepsin K (cathepsin K) | solubility [2] [µM] | Ki (human cathepsin B [1]; [5]) [µM] | Ki (human cathepsin B [1]; [6]) [µM] | Ki (human cathepsin B [1]; [7]) [µM] | Mechanism of inhibition of cathepsin B (human cathepsin B [1]; pH 5.5) | Mechanism of inhibition of cathepsin B (human cathepsin B [1]; pH 7.4) | IC50 (human cathepsin B [3]) [µM] | Mechanism of inhibition of cathepsin L (human cathepsin L) | Ki (human cathepsin L; [8]) [µM] | Ki (human cathepsin L; [9]) [µM] | Mechanism of inhibition of DPPI [4] | Ki (human cathepsin B [1]; [10]) [µM] |
| --- | --- | --- | --- | --- | --- | --- | --- | --- | --- | --- | --- | --- | --- | --- | --- |
| O=C(O)C=Cc1ccc(O)cc1O [2,4-Dihydroxy-cinnamic acid, 2,4-dihydroxycinnamic acid] | 910 ± 30 | 930 ± 150 | – | – | – | – | – | – | – | – | – | – | – | – | – |
| O=C(/C=C/c1ccc(O)c(O)c1)OCCc1ccccc1 [Caffeic acid phenethyl ester, caffeic acid phenethyl ester] | 470 ± 30 | 190 ± 30 | no inhibition | ~200 | 140 ± 10 | 70 ± 19 | 107 ± 38 | Catalytic | Mixed | 100 ± 20 | Mixed | 170 ± 30 | 120 ± 70 | – | – |
| O=C(O)C=Cc1ccc(O)c(O)c1 [Caffeic acid, 3,4-dihydroxycinnamic acid] | 110 ± 10 | > 1000 | no inhibition | – | 82 ± 16 | 46 ± 4 | – | – | Catalytic | > 1000 | Mixed | 1270 ± 120 | 740 ± 70 | linear, mixed balanced | 270 ± 140 |
| O=C(/C=C/c1ccc(O)c(O)c1)O[C@@H]1C[C@](O)(C(=O)O)C[C@@H](O)[C@H]1O [Chlorogenic acid, chlorogenic acid] | 340 ± 20 | 480 ± 20 | – | – | 1200 ± 1100 | 92 ± 15 | 92 ± 15 | Mixed | Mixed balanced | 360 ± 60 | Mixed | 670 ± 60 | 330 ± 20 | linear catalytic | 340 ± 80 |
| O=C(O)/C=C/c1ccccc1 [Cinnamic acid] | > 1000 | > 1000 | – | – | – | – | – | – | – | – | – | – | – | – | – |
| O=C(O)CCc1ccc(O)c(O)c1 [Hydrocaffeic acid, 3-(3,4-Dihydroxyphenyl) propionic acid] | > 1000 | > 1000 | – | – | – | – | – | – | – | – | – | – | – | – | – |
| O=C(O)/C=C/c1ccccc1O [o-Coumaric acid] | > 1000 | > 1000 | – | – | – | – | – | – | – | – | – | – | – | – | – |
| O=C(O)C=Cc1ccc(O)cc1 [p-Coumaric acid] | – | > 1000 | – | – | – | – | – | – | – | – | – | – | – | – | – |

From article PMC7824550 (Biomolecules, 2020)
